According to PubChem BioAssay (NCI):
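GI50 = concentration required for 50% inhibition of growth. TGI denotes the concentration required for complete inhibition of growth.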

Assays:
Assay in all cases: NCI tumour cell line growth inhibition, 384-well format
[1] = test system: ACHN renal
[2] = test system: CCRF-CEM leukemia
[3] = test system: HCC-2998 colon
[4] = test system: HOP-92 NSCLC
[5] = test system: MOLT-4 leukemia
[6] = test system: NCI-H226 lung
[7] = test system: NCI-H322M lung
[8] = test system: OVCAR-3 ovarian
[9] = test system: SF-268 CNS
[10] = test system: SK-MEL-5 melanoma
[11] = test system: SN12C renal
[12] = test system: SNB-19 CNS
[13] = test system: TK-10 renal

## O=C1CC[C@H](N2Cc3c(OCc4ccc(CN5CCOCC5)cc4)cccc3C2=O)C(=O)N1
[1]
  GI50: > 100 µM
  TGI: > 100 µM
[2]
  GI50: > 100 µM
  TGI: > 100 µM
[3]
  GI50: > 100 µM
  TGI: > 100 µM
[4]
  GI50: > 100 µM
  TGI: > 100 µM
[5]
  GI50: > 100 µM
  TGI: > 100 µM
[6]
  GI50: > 100 µM
  TGI: > 100 µM
[7]
  GI50: > 100 µM
  TGI: > 100 µM
[8]
  GI50: > 100 µM
  TGI: > 100 µM
[9]
  GI50: > 100 µM
  TGI: > 100 µM
[10]
  GI50: > 100 µM
  TGI: > 100 µM
[11]
  GI50: > 100 µM
  TGI: > 100 µM
[12]
  GI50: > 100 µM
  TGI: > 100 µM
[13]
  GI50: > 100 µM
  TGI: > 100 µM
